{
  "source": "patent US20230071222A1",
  "about": "“METHOD FOR PREPARING FIBROSIS-ENCAPSULATED TUMOROID, AND USE THEREOF” (INDUSTRY-ACADEMIC COOPERATION FOUNDATION, YONSEI UNIVERSITY, priority 2020, published 2023)",
  "system": "fibrosis-encapsulated tumoroid (FET)",
  "experiment": "Anticancer drug resistance test of fibrosis-encapsulated tumoroid (cell viability measurement)",
  "type": "cell-based, human",
  "details": "cisplatin, 100 µM; fibrosis-encapsulated tumoroid (FET) compared to the simple tumoroid (tumor only); FIG. 10B",
  "experimental": "The present inventors performed a drug resistance test in order to evaluate whether it was possible to select drugs, which can be effective in the clinical stage, using the fibrosis-encapsulated tumoroid which is a solid cancer tissue analogue produced by the methods of Examples 1 to 4 (see FIGS. 10A and 10B). […] The drug test was conducted through cell viability measurement. The cell viability of each of the group containing the anticancer drug and the control group not containing the anticancer drug was measured after replacing the medium with maintenance medium. […] The cell viability of the solid cancer tissue analogue was measured using Promega’s CellTiter-Glo luminescent cell viability assay as another measurement method, and the death of cancer cells by the anticancer drug could be indirectly confirmed by comparison with the control group. […] The fibrosis-encapsulated tumoroid produced as described above mimicked a series of processes in which the anticancer agent passes sequentially through the blood vessel wall and fibrotic tissue and reaches cancer tissue, in the same way as in the human body. Thus, it is preferable to finally produce the eFET and conduct an anticancer drug test using the eFET, but only the FET may be selectively used in order to reduce cost or time. […]",
  "data": [
    {"smiles": "N.N.[Cl][Pt][Cl]", "note": "[cisplatin]", "values": [
      {"measurement": "resistance to the anticancer drug (cell viability)", "value": "statistically significant resistance"}
    ]}
  ]
}
